In PubChem BioAssay AID977613 (Broad Institute, 2014):
Activity calls are given as the source filed them. No rule for the calls is given here.

system: Broad 7084-01 inhibitor HTS, set 2; assay: inhibitors in Broad screen 7084-01, set 2 (AID 977613);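 also: host cells are infected with parasite promastigotes that become internalized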

Row | SMILES | active concentration
1 | O=C(c1ccccc1F)N1CC(=O)N2[C@@H](CO)[C@@H](c3ccc(C#Cc4ccccc4)cc3)[C@@H]2C1 | > 10 µM (inactive)
2 | O=C(C[C@@H]1CC[C@@H]2[C@H](COC[C@@H](O)CN2C(=O)Cc2ccccc2)O1)NC1CCCC1 | > 10 µM (inactive)
3 | CN1C(=O)c2cc(NC(=O)c3cnccn3)ccc2OC[C@@H]2O[C@@H](CC(=O)NCC3CCCCC3)CC[C@H]21 | > 10 µM (inactive)
4 | COc1ccc(NC(=O)N2CC(=O)N3[C@H](CO)[C@H](c4ccc(Br)cc4)[C@H]3C2)cc1 | > 10 µM (inactive)
5 | COc1ccc2c3c([nH]c2c1)[C@@H](CO)N(C(=O)Nc1ccc(F)cc1)CC31CN(C(=O)c2ccccc2F)C1 | > 10 µM (inactive)
6 | CC(C)NC(=O)N1CC[C@@H]2[C@H]1c1cc(Br)ccc1N(C)[C@@H]2CO | > 10 µM (inactive)
7 | CS(=O)(=O)N1C[C@H](O)COC[C@@H]2O[C@@H](CC(=O)NCc3ccc(-c4ccccc4)cc3)CC[C@H]21 | > 10 µM (inactive)
8 | O=C1CNC[C@@H]2[C@@H](c3ccc(C#CC4CCCCC4)cc3)[C@H](CO)N12 | > 10 µM (inactive)
9 | CC(C)CC#Cc1ccc([C@@H]2[C@H]3CN(C(=O)c4ccccn4)CC(=O)N3[C@H]2CO)cc1 | > 10 µM (inactive)
10 | CN1C(=O)c2cc(NC(=O)c3cccc(F)c3)ccc2OC[C@H]2O[C@@H](CC(=O)NCC3CCCCC3)CC[C@@H]21 | > 10 µM (inactive)
11 | CCC(=O)N1CC(=O)N2[C@H](CO)[C@@H](c3ccc(-c4ccc(C#N)cc4)cc3)[C@@H]2C1 | > 10 µM (inactive)
12 | O=C(c1cccnc1)N1CC[C@@H]2[C@@H](CO)Nc3ccc(C4=CCCCC4)cc3[C@@H]21 | > 10 µM (inactive)
13 | O=C(C1CCCCC1)N1CC(=O)N2[C@@H](CO)[C@@H](c3ccc(-c4ccccc4F)cc3)[C@@H]2C1 | > 10 µM (inactive)
14 | Cc1cccc(S(=O)(=O)N2CC[C@@H]3[C@H]2c2cc(C#Cc4ccccc4F)ccc2N[C@@H]3CO)c1 | > 10 µM (inactive)
15 | COc1ccc(CN2[C@H](CO)[C@H]3c4ccccc4NC[C@H]32)cc1 | < 10 µM
16 | O=C(C[C@H]1CC[C@@H]2[C@H](COC[C@@H](O)CN2S(=O)(=O)c2cccc(Cl)c2)O1)Nc1ccc(-c2ccccc2)cc1 | > 10 µM (inactive)
17 | Cc1nn(C)cc1NC(=O)C[C@H]1CC[C@H]2[C@@H](COc3ccc(NC(=O)C4CCOCC4)cc3C(=O)N2C)O1 | > 10 µM (inactive)
18 | O=C(C[C@H]1CC[C@@H]2[C@H](COC[C@H](O)CN2S(=O)(=O)c2ccccc2)O1)Nc1ccccc1 | > 10 µM (inactive)
19 | CCS(=O)(=O)N1CC2(C1)CN(S(=O)(=O)c1ccccc1)[C@H](CO)c1c2c2ccc(OC)cc2n1C | > 10 µM (inactive)
20 | CCS(=O)(=O)Nc1ccc2c(c1)C(=O)N(C)[C@H]1CC[C@@H](CC(=O)NCCOC)O[C@H]1CO2 | > 10 µM (inactive)
21 | O=C(C[C@@H]1CC[C@H]2[C@@H](COC[C@H](O)CN2Cc2cccc(F)c2)O1)NCc1cccc(F)c1 | > 10 µM (inactive)
22 | O=C(c1ccccc1)N1CC(=O)N2[C@H](CO)[C@@H](c3ccc(-c4ccccc4)cc3)[C@H]2C1 | > 10 µM (inactive)
23 | O=C(C[C@H]1CC[C@@H]2[C@H](COC[C@@H](O)CN2Cc2cc(F)cc(F)c2)O1)NC1CCC1 | > 10 µM (inactive)
24 | O=C(Nc1ccccc1)N1CC(=O)N2[C@H](C1)[C@H](c1ccc(C#CC3CCCCC3)cc1)[C@@H]2CO | > 10 µM (inactive)

Row | SMILES | active concentration
25 | O=C(NCC(F)(F)F)[C@@H]1[C@@H](CO)[C@@H]2Cn3c(cccc3=O)[C@H]1N2CC1CCOCC1 | > 10 µM (inactive)
26 | O=C(C[C@H]1CC[C@H]2[C@@H](COC[C@H](O)CN2C(=O)Nc2cc(Cl)cc(Cl)c2)O1)NCC1CCCCC1 | > 10 µM (inactive)
27 | OC[C@@H]1[C@@H]2c3ccccc3NC[C@@H]2N1CC1CCOCC1 | > 10 µM (inactive)
28 | COc1ccc2c3c(n(C)c2c1)[C@@H](CO)N(C(=O)Cc1ccccc1)CC31CN(C)C1 | > 10 µM (inactive)
29 | COCC(=O)N1CC2(C1)CN(C(=O)NC1CCCC1)[C@H](CO)c1c2c2ccc(OC)cc2n1C | > 10 µM (inactive)
30 | COc1ccccc1C(=O)Nc1ccc2c(c1)C(=O)N(C)[C@H]1CC[C@@H](CC(=O)NCCc3ccncc3)O[C@H]1CO2 | > 10 µM (inactive)
31 | CC(C)C#Cc1ccc([C@H]2[C@@H](CO)N3C(=O)CN(C(=O)Cc4ccccc4)C[C@@H]23)cc1 | > 10 µM (inactive)
32 | O=C(C[C@H]1CC[C@@H]2[C@H](COC[C@H](O)CN2Cc2cccc(F)c2)O1)NCc1cccc(F)c1 | > 10 µM (inactive)
33 | Cc1ccc(-c2ccccc2[C@@H]2[C@H](C#N)N(C(=O)c3cccc(F)c3)[C@H]2CO)cc1 | > 10 µM (inactive)
34 | O=C(c1ccccc1)N1CC(=O)N2[C@H](CO)[C@H](c3ccc(-c4ccccc4)cc3)[C@@H]2C1 | > 10 µM (inactive)
35 | CCC(=O)N1C[C@@H]2[C@H](c3ccccc31)[C@H](CO)N2C(=O)CC | > 10 µM (inactive)
36 | O=C(CC1CC1)N1CC(=O)N2[C@H](CO)[C@H](c3ccc(C#Cc4cccc(F)c4)cc3)[C@@H]2C1 | > 10 µM (inactive)
37 | O=C(Nc1ccc(F)cc1)N1CC(=O)N2[C@H](CO)[C@H](c3ccc(C#Cc4cccnc4)cc3)[C@H]2C1 | > 10 µM (inactive)
38 | CN1CCN(C(=O)C[C@@H]2CC[C@@H]3[C@H](COC[C@@H](O)CN3CC3CC3)O2)CC1 | > 10 µM (inactive)
39 | Cc1noc(C)c1NC(=O)N1C[C@H](O)COC[C@H]2O[C@@H](CC(=O)NCC3CCCCC3)CC[C@@H]21 | > 10 µM (inactive)
40 | O=C(C[C@H]1CC[C@@H]2[C@H](COC[C@@H](O)CN2S(=O)(=O)c2ccc(F)cc2)O1)NCC1CC1 | > 10 µM (inactive)
41 | O=C(CC1CC1)N1[C@@H]2CN(S(=O)(=O)c3ccccc3F)c3ccccc3[C@@H]2[C@@H]1CO | > 10 µM (inactive)
42 | CCCC#Cc1ccc([C@@H]2[C@H]3CN(C(=O)c4cccnc4)CC(=O)N3[C@H]2CO)cc1 | > 10 µM (inactive)
43 | COc1ccc2c3c([nH]c2c1)[C@@H](CO)N(C(=O)CN(C)C)CC31CCN(Cc2cncnc2)CC1 | > 10 µM (inactive)
44 | CC(C)NC(=O)N1[C@H](CO)[C@H](c2ccccc2-c2ccc(F)cc2)[C@@H]1C#N | > 10 µM (inactive)
45 | CCS(=O)(=O)Nc1ccc2c(c1)C(=O)N(C)[C@@H]1CC[C@H](CC(=O)N[C@H]3CCN(Cc4ccccc4)C3)O[C@H]1CO2 | > 10 µM (inactive)
46 | CCC(=O)N1CC2(C1)[C@@H](c1ccc(-c3cccc(C)c3)cc1)[C@@H](CO)N2S(C)(=O)=O | > 10 µM (inactive)
47 | COc1ccccc1CN1CC[C@@H]2[C@@H](CO)Nc3ccc(C#Cc4ccccc4)cc3[C@@H]21 | > 10 µM (inactive)
48 | COc1cccc(C(=O)Nc2ccc3c(c2)C(=O)N(C)[C@H]2CC[C@H](CC(=O)NCCCN4CCOCC4)O[C@H]2CO3)c1 | > 10 µM (inactive)

Row | SMILES | active concentration
49 | O=C(C[C@@H]1CC[C@@H]2[C@H](COC[C@H](O)CN2Cc2ccccc2)O1)NCCc1ccccc1 | > 10 µM (inactive)
50 | CC(=O)N1[C@H](C(=O)NCc2ccccc2Cl)[C@@H](CO)[C@@H]2Cn3c(ccc(-c4cncnc4)c3=O)[C@@H]21 | > 10 µM (inactive)
51 | O=C(Nc1ccccc1)N1CC(=O)N2[C@@H](CO)[C@H](c3ccc(C#CC4CCCCC4)cc3)[C@@H]2C1 | > 10 µM (inactive)
52 | COc1ccc2c3c(n(C)c2c1)[C@H](CO)N(C(=O)Nc1ccccc1F)CC31CN(C(=O)c2ccccc2F)C1 | > 10 µM (inactive)
53 | O=C(Cc1ccccn1)N1[C@H](CO)[C@@H]2c3ccccc3NC[C@@H]21 | > 10 µM (inactive)
54 | COc1cccc(NC(=O)Nc2ccc3c(c2)C(=O)N(C)[C@H]2CC[C@H](CC(=O)NCCc4ccccc4)O[C@@H]2CO3)c1 | > 10 µM (inactive)
55 | O=C(C[C@@H]1CC[C@H]2[C@@H](COC[C@H](O)CN2Cc2nccs2)O1)NCc1ccccc1 | > 10 µM (inactive)
56 | O=C1CNC[C@H]2[C@@H](c3ccc(C#CC4CCCCC4)cc3)[C@@H](CO)N12 | > 10 µM (inactive)
57 | N#C[C@@H]1[C@H](c2ccccc2-c2ccccc2)[C@@H](CO)N1C(=O)Cc1ccncc1 | > 10 µM (inactive)
58 | COc1ccccc1CN1[C@@H]2c3ccc(C4=CCCC4)c(=O)n3C[C@H]1[C@H](CO)[C@H]2C(=O)N(C)C | > 10 µM (inactive)
59 | O=C(C[C@@H]1CC[C@@H]2[C@H](COC[C@@H](O)CN2S(=O)(=O)c2cccc(Cl)c2)O1)Nc1ccc(-c2ccccc2)cc1 | > 10 µM (inactive)
60 | O=C(C[C@H]1CC[C@H]2[C@@H](COC[C@H](O)CN2C(=O)c2cccnc2)O1)NCc1ccccc1 | > 10 µM (inactive)
61 | CCC(=O)N1CC2(CN(C(C)=O)C2)c2c([nH]c3cc(OC)ccc23)[C@@H]1CO | > 10 µM (inactive)
62 | CN1c2ccc(Br)cc2[C@H]2[C@H](CCN2S(=O)(=O)c2cccc(F)c2)[C@@H]1CO | > 10 µM (inactive)
63 | COc1ccc(C#Cc2ccc3c(c2)[C@H]2[C@H](CCN2C(=O)Nc2ccc(C(F)(F)F)cc2)[C@@H](CO)N3C)cc1 | > 10 µM (inactive)
64 | COCC(=O)N1[C@@H]2CNc3ccccc3[C@@H]2[C@@H]1CO | > 10 µM (inactive)
65 | O=C(c1cccnc1)N1C[C@H]2[C@@H](c3ccccc31)[C@@H](CO)N2C(=O)CN1CCOCC1 | > 10 µM (inactive)
66 | CC(C)NC(=O)Nc1ccc2c(c1)C(=O)N(C)[C@@H]1CC[C@H](CC(=O)NCc3ccc(F)cc3)O[C@@H]1CO2 | > 10 µM (inactive)
67 | CN1C(=O)c2cc(NC(=O)Nc3ccccc3Cl)ccc2OC[C@H]2O[C@@H](CC(=O)NCCCN3CCOCC3)CC[C@H]21 | > 10 µM (inactive)
68 | CN1[C@H](CO)[C@H]2c3ccccc3N(C(=O)Nc3ccccc3F)C[C@H]21 | > 10 µM (inactive)
69 | CCCNC(=O)N1CC(=O)N2[C@H](C1)[C@H](c1ccc(C#CCC3CCCC3)cc1)[C@@H]2CO | > 10 µM (inactive)
70 | COc1ccc2c3c(n(C)c2c1)[C@@H](CO)N(C(=O)C1CC1)CC31CCN(Cc2cccc(F)c2)CC1 | > 10 µM (inactive)
